{"source": "patent US20210179655A1", "about": "“Prodrugs of a JAK Inhibitor Compound for Treatment of Gastrointestinal Inflammatory Disease” (THERAVANCE BIOPHARMA R&D IP, LLC, priority 2015, published 2021)", "key": {"[1]": {"assay": "Metabolic stability of comparison compounds in rat colon content", "assay_type": "in vitro ADME", "conditions": "10 μM in rat colonic content, up to 120 min", "procedure": "Colonic fecal content was harvested from a naïve male Sprague Dawley rat and was diluted 1:10 (1 gram to 9 mL phosphate buffer) and then homogenized using a handheld Omni Tissue Master. […] A 5 μL aliquot of diluted test compound was spiked into 300 μL of rat colonic content homogenate to begin the reaction at 37° C. Aliquots (50 μL) were removed from the incubation at the following time points (0, 15, 50, 85, and 120 min) and added into 200 μL of ACN with 3% formic acid and an internal standard molecule. […] All samples were centrifuged at 2000×g for 10 min after which 50 μL of supernatant was diluted into 150 μL of water and analyzed using a Thermo Q-Exactive LC-MS system. GraphPad Prism and Microsoft Excel were used to tabulate and plot the data."}, "[2]": {"assay": "Rat colon fecal homogenate stability", "assay_type": "in vitro ADME", "conditions": "male, rat colon fecal homogenate supernatant, read-out: T½ (In vitro colonic stability, loss of pro-drug)", "procedure": "The objective of this study was to determine the stability of the present compounds in rat colon fecal homogenate, i.e. the half-life for decomposition in the presence of the β-glucuronidase in rat colon feces.\nFollowing sacrifice of a naïve male rat (˜300 g) by cardiac puncture exsanguination, the colon was ligated and removed to an anaerobic chamber (AS-580, Anaerobe Systems). The fecal content was removed within the chamber and was diluted 1:10 (1 gram to 9 mL phosphate buffer) and then homogenized using a handheld Omni Tissue Master. The fecal homogenate was centrifuged at 2000 g for 10 min to remove bulk and the supernatant was removed and used for the incubations.\nTest articles and a positive control (sulfasalazine) were prepared as 10 mM DMSO stocks. The final substrate concentration of each assay was 10 μM (30 μM for compound 5). Reactions were started by adding a 5 μL aliquot of diluted test compound stock into 300 μL of rat fecal supernatant-homogenate. At 0, 15, 30, 60, 90, and 120 min post reaction initiation, a 50 μL aliquot was removed into 200 μL of acetonitrile with 3% formic acid and an internal standard molecule. All samples were centrifuged at 2000 g for 10 min after which 50 μL of supernatant was diluted into 150 μL of water for analysis on an LC-MS system. In vitro half-lives for loss of pro-drug were calculated as follows: (T½=0.693/elimination rate constant)."}, "[3]": {"tested_on": "oxazolone-induced colitis", "assay": "Mouse model of oxazolone-induced colitis", "assay_type": "in vivo", "procedure": "Oxazolone-induced colitis is an experimental model that has a histological resemblance to human ulcerative colitis (Heller et al. […], 2002, 17, 629-638). Adult BALB/C mice (25-28 g, 9-12 weeks of age) from BioNeeds (India) were used in the assay. On day 1, animals were lightly anesthetized with isoflurane and the hairs between the shoulder were carefully removed before oxazolone (6 mg/mouse, 100 μL, 4:1 acetone: olive oil formulation) or vehicle solution was slowly applied for skin sensitization. Six days after skin sensitization, the mice were fasted overnight, anesthetized with ketamine and xylazine administered IP, and a 1 mL syringe filled with oxazolone solution, was inserted carefully ˜3.8 cm into the colon of the mouse. Animals were kept in a head down position and oxazolone (0.5 mg/50 μL/mouse in 50% ethanol) or 50% ethanol/saline was rectally instilled very slowly over a minute. The mice were held vertically (head down) for another minute to ensure that the entire oxazolone solution remained inside the colon. Drug treatment (PO, BID or TID) or vehicle was initiated the evening prior to the oxazolone intrarectal (IR) challenge. On both first (Day 1) and second (Day 2) days post-oxazolone IR challenge, the Disease Activity Index (DAI) was assessed by treatment-blinded experimenters for each mouse, according to the following subscores: stool consistency (0, normal; 2, loose; 4, diarrhea), gross bleeding and hemoccult test (0, absence; 2, blood tinged; 4, overt blood presence), and weight loss (0, none; 1, 1%-5%; 2, 6%-10%; 3, 11%-15%; 4, more than 15%); DAI=average of (stool consistency+blood presence+weight loss scores).\nAn area-under-the-curve (AUC) calculation based on total DAI scores was performed to track disease progression during the course of the experiment. AUC for each experimental group was calculated as: AUC=[(Day 1−Day 0)*Average (DAI Score of Day 0 & Day 1)]+[(Day 2−Day 1)*Average (DAI Score of Day 1 & Day 2)]. A Student's t-test compared the DAI AUC score of the vehicle/vehicle and vehicle/oxazolone groups to evaluate whether disease was induced following oxazolone treatment. This was followed by a one way ANOVA, with Dunnett's post hoc test, to compare the DAI AUC score of the vehicle/oxazolone and test compound/oxazolone groups. Statistical significance was defined by an α level set at p<0.05."}, "[4]": {"tested_on": "splenic NK cells", "assay": "Immunosuppression effects in mouse splenic natural killer (NK) cells", "assay_type": "in vivo", "conditions": "mouse, oral dosing for three days", "procedure": "Adult male Balb/C mice (12-14 weeks of age) from Harlan were used for the study. […] Spleens were harvested 30 min or 3 h post last dose and crushed immediately for cell subtype staining. Prior to fixation, fluorophore-labelled antibodies for CD19 (FITC; B cells), CD3e (PE; pan T cells) and DX5 (APC; NK cells) were incubated with splenocyte samples from each animal to allow for simultaneous, multiple subtype % analysis on the flow cytometer. The number of total spleen cells for each animal was measured by Scepter™ 2.0 Handheld Automated Cell Counter.\nThe absolute number of lymphocyte subtype population (e.g., splenic B, T and NK cells) was calculated from the percentage of each subtype times total spleen cells for each animal. A one way ANOVA, with Dunnett's post hoc test, was used to compare the splenic lymphocytes number of the vehicle and test compound groups. The a level was set at p<0.05. Data were presented as the mean SEM for each group."}}}
{"molecule": "Cc1cc(S(C)(=O)=O)ncc1-c1ccc2c(c1)cc(-c1cncc(F)c1C)n2C(=O)N(C)CCN(C)C(=O)OCc1ccc(O[C@@H]2O[C@H](C(=O)O)[C@@H](O)[C@H](O)[C@H]2O)c([N+](=O)[O-])c1", "note": "[Compound C-2]", "values": [{"measurement": "generation of active metabolite from the pro-drug", "setting": "[1]", "value": "failed to generate any measurable amounts"}]}
{"molecule": "C[C@@H]1CCN(C(=O)CC#N)C[C@@H]1N(C)c1ncnc2c1ccn2C(=O)N(C)CCN(C)C(=O)OCc1ccc(O[C@@H]2O[C@H](C(=O)O)[C@@H](O)[C@H](O)[C@H]2O)c(Cl)c1", "note": "[Compound 6, (2S,3S,4S,5R,6S)-6-(2-chloro-4-((((2-(4-(((3R,4R)-1-(2-cyanoacetyl)-4-methylpiperidin-3-yl)(methyl)amino)-N-methyl-7H-pyrrolo[2,3-d]pyrimidine-7-carboxamido)ethyl)(methyl)carbamoyl)oxy)methyl)phenoxy)-3,4,5-trihydroxytetrahydro-2H-pyran-2-carboxylic acid]", "values": [{"measurement": "half-life at 10 μM", "setting": "[2]", "value": 7, "unit": "min"}]}
{"molecule": "COc1cc(COC(=O)N(C)CCN(C)C(=O)n2ccc3c(N(C)[C@H]4CN(C(=O)CC#N)CC[C@H]4C)ncnc32)ccc1O[C@@H]1O[C@H](C(=O)O)[C@@H](O)[C@H](O)[C@H]1O", "note": "[Compound 7, (2S,3S,4S,5R,6S)-6-(4-((((2-(4-(((3R,4R)-1-(2-cyanoacetyl)-4-methylpiperidin-3-yl)(methyl)amino)-N-methyl-7H-pyrrolo[2,3-d]pyrimidine-7-carboxamido)ethyl)(methyl)carbamoyl)oxy)methyl)-2-methoxyphenoxy)-3,4,5-trihydroxytetrahydro-2H-pyran-2-carboxylic acid]", "values": [{"measurement": "half-life at 10 μM", "setting": "[2]", "value": "3 to 8", "unit": "min"}]}
{"molecule": "CN(CCN(C)C(=O)OCc1ccc(O[C@@H]2O[C@H](C(=O)O)[C@@H](O)[C@H](O)[C@H]2O)c([N+](=O)[O-])c1)C(=O)Nc1ccc(O)c(C(=O)O)c1", "note": "[Compound C-1]", "values": [{"measurement": "generation of active metabolite from the pro-drug", "setting": "[1]", "value": "failed to generate any measurable amounts"}]}
{"molecule": "Cc1cc(COC(=O)N(C)CCN(C)C(=O)n2ccc3c(N(C)[C@H]4CN(C(=O)CC#N)CC[C@H]4C)ncnc32)ccc1O[C@@H]1O[C@H](C(=O)O)[C@@H](O)[C@H](O)[C@H]1O", "note": "[Compound 5, (2S,3S,4S,5R,6S)-6-(4-((((2-(4-(((3R,4R)-1-(2-cyanoacetyl)-4-methylpiperidin-3-yl)(methyl)amino)-N-methyl-7H-pyrrolo[2,3-d]pyrimidine-7-carboxamido)ethyl)(methyl)carbamoyl)oxy)methyl)-2-methylphenoxy)-3,4,5-trihydroxytetrahydro-2H-pyran-2-carboxylic acid]", "values": [{"measurement": "half-life at 30 μM", "setting": "[2]; 30 μM", "value": 6, "unit": "min"}]}
{"molecule": "C[C@@H]1CCN(C(=O)CC#N)C[C@@H]1N(C)c1ncnc2c1ccn2C(=O)N(C)CCN(C)C(=O)OCc1ccc(O[C@@H]2O[C@H](C(=O)O)[C@@H](O)[C@H](O)[C@H]2O)cc1", "note": "[Compound 4, (2S,3S,4S,5R,6S)-6-(4-((((2-(4-(((3R,4R)-1-(2-cyanoacetyl)-4-methylpiperidin-3-yl)(methyl)amino)-N-methyl-7H-pyrrolo[2,3-d]pyrimidine-7-carboxamido)ethyl)(methyl)carbamoyl)oxy)methyl)phenoxy)-3,4,5-trihydroxytetrahydro-2H-pyran-2-carboxylic acid]", "values": [{"measurement": "reversal of oxazolone-induced colitis (DAI AUC score)", "setting": "[3]; separate experiment, 3, 10, and 30 mg/kg, PO, BID, similar magnitude to tofacitinib 30 mg/kg", "value": "significant reversal"}, {"measurement": "half-life at 10 μM", "setting": "[2]", "value": "1 to 13", "unit": "min"}]}
{"molecule": "C[C@@H]1CCN(C(=O)CC#N)C[C@@H]1N(C)c1ncnc2[nH]ccc12", "note": "[Tofacitinib, 3-((3R,4R)-4-methyl-3-(methyl(7H-pyrrolo[2,3-d]pyrimidin-4-yl)amino)piperidin-1-yl)-3-oxopropanenitrile, reference compound]", "values": [{"measurement": "Systemic functional activity (splenic NK depletion)", "setting": "[4]", "value": 10, "unit": "mg/kg"}, {"measurement": "In vivo efficacy (oxazolone colitis), effective dose", "setting": "[3]; Effective dose that exhibits a comparable pharmacological effect in the oxazolone model compared to its vehicle", "value": 30, "unit": "mg/kg"}]}
